According to ChEMBL document CHEMBL1255361, “Differential antibiotic susceptibility of Mycobacterium abscessus variants in biofilms and macrophages compared to that of planktonic bacteria” (2008):
Values after ≈ are worked out from the molar mass of the structure shown. Active and inactive are the calls of the source. The rule behind the calls is not given here.

Experiments:
[1] = system: Mycobacteroides abscessus; assay: Antimicrobial activity against Mycobacterium abscessus 390R after 96 hrs; format: functional
[2] = system: Mycobacteroides abscessus; assay: Antimicrobial activity against Mycobacterium abscessus 390S assessed as inhibition of resuspended biofilm formation in replete medium; format: functional
[3] = system: Mycobacteroides abscessus; assay: Antimicrobial activity against Mycobacterium abscessus 390S assessed as inhibition of planktonic cell growth in replete medium; format: functional
[4] = system: Mycobacteroides abscessus; assay: Antimicrobial activity against Mycobacterium abscessus 390S assessed as inhibition of biofilm formation at 64 ug/ml after 24 hrs; format: functional
[5] = system: Mycobacteroides abscessus; assay: Antimicrobial activity against Mycobacterium abscessus 390S assessed as inhibition of planktonic cell growth in depleted medium; format: functional
[6] = system: Mycobacteroides abscessus; assay: Antimicrobial activity against Mycobacterium abscessus 390S; format: functional
[7] = system: Mycobacteroides abscessus; assay: Bacteriostatic activity against Mycobacterium abscessus 390V infected in human monocyte-derived macrophage at 10 times MIC; format: functional, organism-based
[8] = system: Mycobacteroides abscessus; assay: Bacteriostatic activity against Mycobacterium abscessus 390R infected in human monocyte-derived macrophage assessed as inhibition of planktonic cell growth at 4 ug/ml treated 24 hrs postinfection; format: functional, organism-based
[9] = system: Mycobacteroides abscessus; assay: Antimicrobial activity against Mycobacterium abscessus 390S infected in human monocyte-derived macrophage assessed as reduction in viable bacteria count at 10 times MIC by […]; format: functional, organism-based
[10] = system: Mycobacteroides abscessus; assay: Antimicrobial activity against Mycobacterium abscessus 390S assessed as inhibition of biofilm formation up to 512 ug/ml after 24 hrs; format: functional
[11] = system: Mycobacteroides abscessus; assay: Antimicrobial activity against Mycobacterium abscessus 390S assessed as inhibition of biofilm formation up to 128 ug/ml treated during mid log-phase; format: functional
[12] = system: Mycobacteroides abscessus; assay: Antimicrobial activity against Mycobacterium abscessus 390S after 96 hrs; format: functional
[13] = system: Mycobacteroides abscessus; assay: Bacteriostatic activity against Mycobacterium abscessus 390V infected in human monocyte-derived macrophage assessed as inhibition of planktonic cell growth at 4 ug/ml treated 24 hrs postinfection; format: functional, organism-based
[14] = system: Mycobacteroides abscessus; assay: Antimicrobial activity against Mycobacterium abscessus 390S assessed as inhibition of biofilm formation up to 128 ug/ml treated during lag-phase measured after 24 hrs; format: functional, organism-based
[15] = system: Mycobacteroides abscessus; assay: Bacteriostatic activity against Mycobacterium abscessus 390S infected in human monocyte-derived macrophage assessed as inhibition of planktonic cell growth at 4 ug/ml treated 24 hrs postinfection; format: functional, organism-based
[16] = system: Mycobacteroides abscessus; assay: Bacteriostatic activity against Mycobacterium abscessus 390S assessed as inhibition of planktonic cell growth up to 1024 ug/ml after 24 hrs; format: functional, organism-based
[17] = system: Mycobacteroides abscessus; assay: Antimicrobial activity against Mycobacterium abscessus 390V after 96 hrs; format: functional
[18] = system: Mycolicibacterium fortuitum; assay: Antimicrobial activity against Mycobacterium fortuitum; format: functional

NCC[C@H](O)C(=O)N[C@@H]1C[C@H](N)[C@@H](O[C@H]2O[C@H](CN)[C@@H](O)[C@H](O)[C@H]2O)[C@H](O)[C@H]1O[C@H]1O[C@H](CO)[C@@H](O)[C@H](N)[C@H]1O [AMIKACIN]
MIC [1]: 2 µg/mL (≈ 3.42 µM) | MBC [2]: 64 µg/mL (≈ 109 µM) | MBC [3]: 32 µg/mL (≈ 54.6 µM) | log10cfu [4]: 1.1 | MBC [5]: 128 µg/mL (≈ 219 µM) | MBC [6]: 64 µg/mL (≈ 109 µM) | Activity [7]: Active

CC[C@H]1OC(=O)[C@H](C)[C@@H](O[C@H]2C[C@@](C)(OC)[C@@H](O)[C@H](C)O2)[C@H](C)[C@@H](O[C@@H]2O[C@H](C)C[C@H](N(C)C)[C@H]2O)[C@](C)(OC)C[C@@H](C)C(=O)[C@H](C)[C@@H](O)[C@]1(C)O [CLARITHROMYCIN]
MBC [2]: 256 µg/mL (≈ 342 µM) | MBC [3]: 16 µg/mL (≈ 21.4 µM) | Activity [8]: Active | Activity [9]: Active | MBC [5]: 256 µg/mL (≈ 342 µM) | log10cfu [10]: 0.6 | log10cfu [11]: 1 | MIC [12]: 0.25 µg/mL (≈ 0.334 µM) | Activity [13]: Active | Activity [14]: inactive | MBC [6]: 16 µg/mL (≈ 21.4 µM) | Activity [15]: Active

CO[C@@]1(NC(=O)Cc2cccs2)C(=O)N2C(C(=O)O)=C(COC(N)=O)CS[C@@H]21 [CEFOXITIN]
Activity [16]: Active | MIC [17]: 8 µg/mL (≈ 18.7 µM) | MIC [18]: 6.25 µg/mL (≈ 14.6 µM) | Activity [7]: Active
